This is an account of results in patent publication US6646137B1, “Non-peptide GnRH agents” (priority 1998, dated 2003).

Read-outs that look alike come from different tables or passages of the source.

For the assay, the target named is T1, human GnRH receptor (Homo sapiens, UniProt P30968).
T1 construct: The cDNA for the human GnRH receptor is cloned into the plasmid expression vector, pcDNA 3; expressed in transfected cells; host or cells: HEK 293 cells, stably transfected (pcDNA 3); membrane preparation
T1 sequence (P30968 1-328): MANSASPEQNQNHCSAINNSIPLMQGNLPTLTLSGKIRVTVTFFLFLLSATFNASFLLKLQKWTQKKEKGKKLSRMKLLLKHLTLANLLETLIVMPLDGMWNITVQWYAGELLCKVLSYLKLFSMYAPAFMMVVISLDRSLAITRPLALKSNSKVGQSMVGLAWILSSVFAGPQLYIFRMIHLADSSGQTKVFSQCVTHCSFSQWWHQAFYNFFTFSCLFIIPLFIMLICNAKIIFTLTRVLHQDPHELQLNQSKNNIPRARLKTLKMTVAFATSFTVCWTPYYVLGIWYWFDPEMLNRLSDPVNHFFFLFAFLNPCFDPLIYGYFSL
Kind of assay: GnRH receptor competitive radioligand binding assay (125I-GnRH-A, HEK 293 cell membranes). The settings on record: compound at 10 μM. The text has this: The cDNA for the human GnRH receptor is cloned into the plasmid expression vector, pcDNA 3 (In Vitrogen), and stably transfected in HEK 293 cells (a cell line developed by Dr. Stuart Sealfon, Mount Sinai Medical School, New York, N.Y.).
The human GnRH receptor (hGnRH) is cloned into pcDNA 3 (In Vitrogen), which provides high-level expression and a neomycin resistance marker. Lipofectamine (GIBCO BRL) is used to transfect HEK 293 cells with plasmid DNA. This method involves mixing the plasmid and reagent in serum-free medium, allowing DNA-liposome complexes to form, and overlaying cells with this solution. The HEK 293 cells are plated (seeded) on a 10-cm tissue culture dish at a density of 3×10^6 cells/dish the day before transfection. For each plate, 8 μg DNA plus 0.8 mL serum-free medium is mixed with 48 μL lipofectamine plus 0.8 mL serum-free medium, followed by incubation for 30 minutes at room temperature to allow DNA-liposome complexes to form. Serum-free medium is added to give a final volume of 6 mL/plate. The cells are rinsed twice with serum-free medium and overlayed with the DNA-liposome mixture. Five hours after transfection, an equal volume (6 mL) of medium containing 20% FBS (fetal bovine serum) is added. The cells are fed with fresh complete medium 18-24 hours after transfection. The cells are split 72 hours following transfection, at densities of 1:10 and 1:20. Stable tranformants are selected for by growth of the cells in antibiotic containing medium (G418, Sigma Chemical Company (also known as Geneticin)). Colonies are isolated and tested for receptor expression by radioligand binding and by measuring phosphoinositol turnover.
HEK 293 cells stably transfected with human GnRH receptors as described above are grown in MEM (minimal essential medium, available from Sigma Chemical Company) supplemented with 0.1% G418 (Sigma Chemical Company). Cells are homogenized in buffer A containing 50 mM Tris (pH 74.), 0.32M sucrose, 2 mM ethyleneglycol-bis(β-aminoethyl)-N,N,N′,N′-tetraacetic acid (EGTA), 1 mM phenylmethylsulfonyl fluoride (PMSF), 5 μg/mL aprotinen, 5 μg/mL Pepstatin A, and 1 μg/mL leupeptin. The homogenized cells are centrifuged at 4° C. at 20,000×g for 25 minutes, resuspended in buffer A, and recentrifuged at 4° C. at 20,000×g for an additional 25 minutes. Total membrane protein is determined with a BCA kit (Pierce, Rockford, Ill.). Membranes are stored at −70° C. at a final membrane protein concentration of 5 mg/mL.
The radioiodinated agonist analog of GnRH, [des-Gly^10, D-Ala^8]GnRH ethylamide (GnRH-A), is used as the labeled ligand. One μg of GnRH-A diluted in 0.1M acetic acid is added to an lodogen®-coated borosilicate glass tube pierce) containing 35 μL of 0.05M phosphate buffer (pH 7.4-7.6) and 1 mCi of Na[^125I]. The reaction mixture is vortexed and incubated for 1 minute at room temperature. After one minute, the mixture is vortexed again and allowed to incubate for an additional minute. Two mL of 0.5M acetic acid/1% BSA is added to the reaction tube, and the mixture is added to a C18 Sep-Pak cartridge. The cartridge is washed with subsequent washes of 5 mL H2O and 5 mL 0.5M acetic acid, and then eluted with 5×1 mL of 60% CH3CN/40% 0.5M acetic acid. The eluant is diluted with 3×volume of HPLC buffer A (0.1% TFA in H2O) and loaded onto a C18 column. The iodinated product is eluted over 20-25 minutes with a gradient of 25-100% CH3CN containing 0.1% TFA. The radioactive fractions (750 μL/fraction) are collected into clean polypropylene tubes containing 10 μL of 10% BSA. Fractions are assessed for biological activity by radioligand binding. Active fractions are utilized to screen the compounds for competitive binding assays.
HEK 293 cell membranes stably expressing hGnRHR (human GnRH receptors) are diluted to 0.5-1.0 mg/mL with assay buffer containing 50 mM HEPES (pH 7.4), 1 mM ethylenediarninetetraacetic acid (EDTA), 2.5 mM MgCl2, and 0.1% BSA. […]

Setting [1] is: average of 1st and 2nd test, read-out: Average % Remaining (percent of specific binding remaining).
The mark [2] stands for this setting: crude compounds, 125I-GnRH-A, lower value = higher inhibition, read-out: % Remaining 1st Test (percent of specific binding remaining).
Where [3] appears, read: crude compounds, 125I-GnRH-A, lower value = higher inhibition, read-out: % Remaining 2nd Test (percent of specific binding remaining).

For the molecule `CC(C)(C)c1ccc(CN(Cc2ccc(CNC(=N)N)cc2)C(=O)c2cccc3ccccc23)cc1` [Compound 1], the remaining activity at 10 µM reads like this: under setting [1], 57%; under setting [2], 57%; under setting [3], 57%.

Take `CC(C)(C)c1ccc(CN(Cc2ccc(CNC(=N)N)cc2)C(=O)c2ccccc2)cc1` [Compound 2]: the remaining activity at 10 µM is, setting by setting: under setting [1], 57%; under setting [2], 59%; under setting [3], 54%.

Regarding `CN(C)CCCOc1ccc(CN(Cc2ccc(CNC(=N)N)cc2)C(=O)c2ccc3ccccc3c2)cc1` [Compound 3], the remaining activity at 10 µM is, setting by setting: under setting [1], 55%; under setting [2], 58%; under setting [3], 57%.

Take `N=C(N)NCc1ccc(CN(CC23CC=CCC2C2CC=CCC2O3)C(=O)c2cccc3ccccc23)cc1` (stereo not drawn) [Compound 4]: the remaining activity at 10 µM under setting [1] stood at 40%, the remaining activity at 10 µM under setting [2] worked out at 40% and the remaining activity at 10 µM under setting [3] came out at 40%.

Take `N=C(N)NCc1ccc(CN(CC23CC=CCC2C2CC=CCC2O3)C(=O)c2ccc3ccccc3c2)cc1` (stereo not drawn) [Compound 5]: the remaining activity at 10 µM runs as follows: under setting [1], 37%; under setting [2], 31%; under setting [3], 33%.

As for `N=C(N)NCc1ccc(CN(CC23CC=CCC2C2CC=CCC2O3)C(=O)c2cccs2)cc1` (stereo not drawn) [Compound 6], the remaining activity at 10 µM reads like this: under setting [1], 46%; under setting [2], 47%; under setting [3], 45%.

Take `N=C(N)NCc1ccc(CN(CC23CC=CCC2C2CC=CCC2O3)C(=O)c2ccco2)cc1` (stereo not drawn) [Compound 7]: the remaining activity at 10 µM under setting [1] stood at 53%, the remaining activity at 10 µM under setting [2] was determined as 51% and the remaining activity at 10 µM under setting [3] came out at 55%.

Consider `N=C(N)NCc1ccc(CN(CC23CC=CCC2C2CC=CCC2O3)C(=O)c2ccccc2)cc1` (stereo not drawn) [Compound 8], for which the remaining activity at 10 µM is, setting by setting: under setting [1], 45%; under setting [2], 42%; under setting [3], 48%.

For the molecule `N=C(N)NCc1ccc(CN(CC23CC=CCC2C2CC=CCC2O3)C(=O)c2ccc(Cl)nc2)cc1` (stereo not drawn) [Compound 9], the remaining activity at 10 µM stood at 52% under setting [1], 51% under setting [2] and 53% under setting [3].

Take `Cc1cc2c(cc1CN(Cc1ccc(CNC(=N)N)cc1)C(=O)C1CCCCC1)C(C)(C)CCC2(C)C` [Compound 10]: the remaining activity at 10 µM was 53% under setting [1], 51% under setting [2] and 54% under setting [3].

Take `Cc1cc2c(cc1CN(Cc1ccc(CNC(=N)N)cc1)C(=O)c1cccc3ccccc13)C(C)(C)CCC2(C)C` [Compound 11]: the remaining activity at 10 µM reads like this: under setting [1], 53%; under setting [2], 55%; under setting [3], 50%.

`Cc1cc2c(cc1CN(Cc1ccc(CNC(=N)N)cc1)C(=O)c1ccco1)C(C)(C)CCC2(C)C` [Compound 13]: the remaining activity at 10 µM under setting [1] turned out to be 13%, the remaining activity at 10 µM under setting [2] came to 14% and the remaining activity at 10 µM under setting [3] was determined as 11%.

As for `Cc1cc2c(cc1CN(Cc1ccc(CNC(=N)N)cc1)C(=O)c1ccccc1)C(C)(C)CCC2(C)C` [Compound 14], the remaining activity at 10 µM under setting [1] was 55%, the remaining activity at 10 µM under setting [2] turned out to be 56% and the remaining activity at 10 µM under setting [3] was 54%.

For `CC(=O)N(Cc1ccc(CNC(=N)N)cc1)Cc1cc2c(cc1C)C(C)(C)CCC2(C)C` [Compound 15], the remaining activity at 10 µM was determined as 59% under setting [1], 58% under setting [2] and 60% under setting [3].

On to `Cc1cc2c(cc1CN(Cc1ccc(CNC(=N)N)cc1)C(=O)c1ccc(Cl)nc1)C(C)(C)CCC2(C)C` [Compound 16], for which the remaining activity at 10 µM reads like this: under setting [1], 49%; under setting [2], 50%; under setting [3], 47%.

Turning to `N=C(N)NCc1ccc(CN(Cc2ccc(OCc3ccccc3)c(OCc3ccccc3)c2)C(=O)c2ccccc2)cc1` [Compound 19], the remaining activity at 10 µM is 45% under setting [1], 47% under setting [2] and 42% under setting [3].

Consider `N=C(N)NCc1ccc(CN(Cc2ccc(OCc3ccccc3)c(OCc3ccccc3)c2)C(=O)c2ccc(Cl)nc2)cc1` [Compound 20], for which the remaining activity at 10 µM was 57% under setting [1], 60% under setting [2] and 54% under setting [3].

On to `CC(=O)N(Cc1ccc(CNC(=N)N)cc1)Cc1ccc(OCc2ccccc2)c(OCc2ccccc2)c1` [Compound 21], for which the remaining activity at 10 µM by setting is: under setting [1], 49%; under setting [2], 46%; under setting [3], 51%.

`CCOc1cc(OCC)c(OCC)cc1CN(Cc1ccc(CNC(=N)N)cc1)C(=O)c1ccco1` [Compound 22]: the remaining activity at 10 µM reads like this: under setting [1], 55%; under setting [2], 52%; under setting [3], 57%.

Consider `CC(C)(C)c1ccc(CN(CCCCNC(=N)N)C(=O)c2cccc3ccccc23)cc1` [Compound 23], for which the remaining activity at 10 µM came to 49% under setting [1], 48% under setting [2] and 50% under setting [3].

For the molecule `CC(C)(C)c1ccc(CN(CCCCNC(=N)N)C(=O)c2ccc3ccccc3c2)cc1` [Compound 24], the remaining activity at 10 µM under setting [1] was determined as 56%, the remaining activity at 10 µM under setting [2] is 58% and the remaining activity at 10 µM under setting [3] was determined as 58%.

For `N=C(N)NCCCCN(CC12CC=CCC1C1CC=CCC1O2)C(=O)c1cccc2ccccc12` (stereo not drawn) [Compound 25], the remaining activity at 10 µM turned out to be 46% under setting [1], 41% under setting [2] and 51% under setting [3].

As for `N=C(N)NCCCCN(CC12CC=CCC1C1CC=CCC1O2)C(=O)c1ccc2ccccc2c1` (stereo not drawn) [Compound 26], the remaining activity at 10 µM by setting is: under setting [1], 36%; under setting [2], 35%; under setting [3], 37%.

Consider `Cc1cc2c(cc1CN(CCCCNC(=N)N)C(=O)C1CCCCC1)C(C)(C)CCC2(C)C` [Compound 27], for which the remaining activity at 10 µM came to 59% under setting [1], 56% under setting [2] and 62% under setting [3].

Take `Cc1cc2c(cc1CN(CCCCNC(=N)N)C(=O)c1cccc3ccccc13)C(C)(C)CCC2(C)C` [Compound 28]: the remaining activity at 10 µM was 52% under setting [1], 46% under setting [2] and 57% under setting [3].

`Cc1cc2c(cc1CN(CCCCNC(=N)N)C(=O)c1ccc3ccccc3c1)C(C)(C)CCC2(C)C` [Compound 29]: the remaining activity at 10 µM runs as follows: under setting [1], 57%; under setting [2], 53%; under setting [3], 61%.
